Laboratory results from publication PMC9886550, “Molecular mechanism of topoisomerase poisoning by the peptide antibiotic albicidin” (Nature Catalysis, 2023).
Values after ≈ are worked out from the molar mass of the structure shown. Read-outs that look alike come from different tables or passages of the source. Marks after values point to notes of the source that are not given here.

Columns and labels:
[1] = system: B. subtilis DSM10; test: MIC determination (microdilution, M07-A9); assay type: cell-based; conditions: Bacillus subtilis
Description: (§1) MIC values were determined according to the ninth edition of the Approved Standard M07-A9. The test was carried out for six different bacterial strains (E. coli DSM 1116 (Gram-negative), E. coli BW25113 (Gram-negative), B. subtilis DSM 10 (Gram-positive), M. luteus DSM 1790 (Gram-positive), M. phlei DSM 750 (Gram-positive), S. typhimurium TA 100 (Gram-negative). First, 20 µl of glycerol stock of each strain was inoculated in 20 ml LB (Lennox) followed by incubation overnight at 37 °C, 200 r.p.m. The test inoculum was adjusted by the 0.5 McFarland Standard. Within 15 min of preparation, the adjusted inoculum suspension was diluted in MHBII so that each well contained approximately 5 × 10^5 c.f.u. ml^−1 in a final volume of 100 µl. Then, 95 µl of the inoculum was applied per well and 5 µl of the (diluted) albicidins was added. For dilutions, the dry powders were dissolved in dimethylsulfoxide (DMSO) with a concentration of 2.56 mg ml^−1, and the obtained stock solutions were further diluted in DMSO. Next, 5 µl of each antibiotic dilution was applied to the microdilution tray to reach final concentrations of 8 to 0.016 µg ml^−1. One row of each well plate served as a growth control without antibiotic and another row of the microdilution tray served as a sterility control (only MHBII media). The antimicrobial effect of the solvent was tested by adding 5 µl DMSO to several wells. Purity check and cell titre control were performed according to International Standard M07-A9 on Mueller–Hinton II Agar. Both microdilution trays and agar plates were incubated at 37 °C for 20 h.

[2] = system: E. coli BW25113; test: MIC determination (microdilution, M07-A9); assay type: cell-based; conditions: E. coli BW25113
Description: as §1

[3] = system: E. coli DSM116; test: MIC determination (microdilution, M07-A9); assay type: cell-based
Description: as §1

[4] = system: M. luteus DSM1790; test: MIC determination (microdilution, M07-A9); assay type: cell-based
Description: as §1

[5] = system: M. phlei DSM750; test: MIC determination (microdilution, M07-A9); assay type: cell-based; conditions: Mycolicibacterium phlei
Description: as §1

[6] = system: S. typhimurium TA100; test: MIC determination (microdilution, M07-A9); assay type: cell-based
Description: as §1

[7] = system: selected Gram-negative and Gram-positive microorganisms; test: MIC activity groups over all tested strains; assay type: cell-based; set-up: key: a: most potent; b: intermediate; least active; conditions: MIC panel
Description: as §1

[8] = target: T1, WT E. coli gyrase (Escherichia coli, UniProt P0AES4+P0AES6); test: biochemical; assay type: biochemical; conditions: WT gyrase 20 nM; in words
T1 construct: alternative cryo-EM approach involving full-length E. coli gyrase; 10-His (cleaved yes); Twin-Strep (cleaved yes); made in house
Description: For DNA gyrase supercoiling assays to characterize gyrase mutants, 15 µl reactions were set up containing 250 ng of relaxed DNA, E. coli gyrase supercoiling buffer (35 mM Tris–Cl pH 7.5, 24 mM KCl, 4 mM MgCl2, 2 mM DTT, 1.8 mM spermidine, 1 mM ATP, 6.0% (w/v) glycerol, and 0.1 mg ml^−1 BSA), gyrase subunits and inhibitors. Concentrations of enzyme and inhibitor are stated in the figure legends. Inhibitors were diluted in the following way to reduce the chance of precipitation: stock compound in 100% DMSO was diluted to 5 mM in 100% DMSO. This compound solution was diluted to 1 mM by stepwise addition of 1 µl of 50% DMSO with thorough mixing via pipetting after each addition. All subsequent dilutions up to 100 µM were performed in the same way using H2O. After this point, compounds were stable and could be diluted in the normal way. Reactions were incubated at 37 °C for 30 min before stopping with 15 µl chloroform:isoamyl alcohol (24:1 v/v) and 15 µl of STEB (40% (w/v) sucrose, 100 mM Tris–Cl pH 8, 10 mM EDTA, 0.5 mg ml^−1 bromophenol blue).
Cleavage assays were set up in the same way as supercoiling assays with some modifications. The concentration of enzyme was increased 4-fold relative to the supercoiling assay and reactions were incubated for 1 h before addition of 0.2% SDS and proteinase K (0.2 mg ml^−1) and further incubation at 37 °C for 30 min to trap cleavage complexes. Reactions were stopped in the same way as supercoiling assays.
Results were visualized by agarose gel electrophoresis: 1% agarose Tris-acetate-EDTA (TAE) gels were run without ethidium bromide (supercoiling) or with 10 µg ml^−1 ethidium bromide (cleavage) at 8 V cm^−1.
DNA cleavage gels were analysed using densitometry (ImageJ). Experiments were carried out in triplicate and expressed as mean ± s.d. Curves were fitted using OriginPro 2021 (Origin Lab) according to a modified Hill equation:1 y=cI+(cF−cI)[…]/(k^n+x^n) where y is the percentage of cleaved DNA, cI is the initial cleavage, cF is the final cleavage, k is the CC50 (the concentration of inhibitor that results in cleavage of 50% of DNA), n is a slope factor and x is the inhibitor concentration.

[9] = target: T2, E. coli gyrase (Escherichia coli, UniProt P0AES4+P0AES6); test: Gyrase cleavage of linear DNA fragments (Mu217 and others); assay type: biochemical; conditions: in words
T2 construct: alternative cryo-EM approach involving full-length E. coli gyrase; 10-His (cleaved yes); Twin-Strep (cleaved yes); made in house
Description: Mu217 DNA (25 nM) was incubated with 0.4 µM gyrase and indicated concentrations (1 or 10 µM) of diazirine-labelled albicidin (photo-Albi, φAlbi) in a volume of 20 µl (~70 ng DNA) at 37 °C for 30 min in gyrase cleavage buffer (see section 'Topoisomerase assays'). For CFX competition experiments, 30 µM CFX was added first, followed by the albicidin. Reactions were either irradiated with ultraviolet 365 nm (benchtop transilluminator) with cooling (ice) for 30 min or left on ice for 30 min (‘dark’). Then, 0.2% SDS and 0.2 mg ml^−1 proteinase K were added to both samples, which were incubated for another 30 min. Reactions were mixed with loading dye (STEB) and chloroform:isoamyl alcohol (24:1 v/v) before vortexing and centrifugation. The aqueous phase was loaded on 4–20% TBE (Tris–borate–EDTA) polyacrylamide gel (Thermo) and ran for 1 h at 150 V. DNA was visualized with SYBR Gold (Thermo) staining.
Extended Data Fig. 1 Length dependency of albicidin-mediated DNA cleavage. Position of cleaved DNA indicated by arrows and red dots. ATP and ADPNP were added as indicated, (----) stands for no nucleotide added. 20 nM gyrase, 1 µM albicidin and 25 nM DNA was used in each reaction.
Extended Data Fig. 5 Photocrosslinking of diazirine-labelled albicidin (photo-Albi) to the DNA. a. Structures of N-terminal photo-Albi and control compound. b. DNA cleavage assay with Mu217 fragment and indicated concentrations of compounds. The labelled DNA band appearing upon irradiation of a photo-compound when bound to the complex is marked by a yellow star. c. Ciprofloxacin competition experiment. Pre-incubation with excess CFX prevents albicidin binding and crosslinking. Details of the experiment are available in Methods section.

[10] = first value in cell (biological replicate)
[11] = second value in cell (biological replicate)
[12] = Escherichia coli, first value in cell (biological replicate), read-out: MIC
[13] = E. coli DSM116, second value in cell (biological replicate)
[14] = Escherichia coli, E. coli DSM116, first value in cell (biological replicate), read-out: MIC
[15] = Micrococcus luteus, first value in cell (biological replicate), read-out: MIC
[16] = Salmonella enterica, first value in cell (biological replicate), read-out: MIC

T1 sequence (P0AES4 whole entry, one chain of several): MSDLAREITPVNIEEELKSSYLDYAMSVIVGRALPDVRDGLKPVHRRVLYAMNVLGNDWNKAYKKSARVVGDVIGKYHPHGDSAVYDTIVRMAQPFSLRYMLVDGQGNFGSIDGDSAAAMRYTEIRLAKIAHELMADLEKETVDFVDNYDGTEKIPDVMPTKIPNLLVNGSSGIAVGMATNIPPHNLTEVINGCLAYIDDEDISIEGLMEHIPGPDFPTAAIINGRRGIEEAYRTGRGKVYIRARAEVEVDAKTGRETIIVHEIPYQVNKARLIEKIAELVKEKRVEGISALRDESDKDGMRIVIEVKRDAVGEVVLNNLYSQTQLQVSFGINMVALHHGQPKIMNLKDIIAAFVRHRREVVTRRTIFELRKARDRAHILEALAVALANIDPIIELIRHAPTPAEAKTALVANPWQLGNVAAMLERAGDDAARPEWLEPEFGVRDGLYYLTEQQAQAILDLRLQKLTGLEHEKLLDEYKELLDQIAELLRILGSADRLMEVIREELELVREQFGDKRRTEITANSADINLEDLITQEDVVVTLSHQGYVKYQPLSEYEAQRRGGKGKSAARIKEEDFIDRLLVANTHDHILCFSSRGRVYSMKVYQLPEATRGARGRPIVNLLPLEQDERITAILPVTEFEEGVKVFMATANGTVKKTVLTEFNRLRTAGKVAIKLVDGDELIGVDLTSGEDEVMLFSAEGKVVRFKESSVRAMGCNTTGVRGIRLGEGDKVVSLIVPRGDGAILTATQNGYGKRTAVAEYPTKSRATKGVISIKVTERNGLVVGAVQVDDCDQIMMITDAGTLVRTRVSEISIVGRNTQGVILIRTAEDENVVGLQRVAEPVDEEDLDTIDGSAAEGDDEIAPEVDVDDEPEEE
T2 sequence (P0AES4 whole entry, the tested form may be a part, one chain of several): as the sequence (P0AES4 whole entry, one chain of several) above

SMILES	MIC [1, 10]	MIC [1, 11]	MIC [2, 12]	MIC [3, 13]	MIC [3, 14]	MIC [4, 15]	MIC [4, 11]	MIC [5, 10]	MIC [5, 11]	MIC [6, 16]	activity group (superscript letter) [7]	activity in a DNA cleavage assay relative to albicidin [8]	MIC [2, 11]	MIC ([3]; Escherichia coli, DSM116, E. coli DSM116, first value in cell (biological replicate), read-out: MIC)	MIC ([3]; Escherichia coli, DSM116, E. coli DSM116, second value in cell (biological replicate), read-out: MIC)	MIC [6, 11]	activity against gyrase [9]
COc1ccccc1NC(=O)c1ccc(NC(=O)[C@H](Cc2c[nH]nn2)NC(=O)c2ccc(NC(=O)c3ccc(C#N)cc3)cn2)cn1 [AE-1]	> 8 µg/mL	> 8 µg/mL	> 8 µg/mL	>8.0 >8.0 µg ml^−1	> 8 µg/mL	> 8 µg/mL	>8.0 >8.0 µg ml^−1	> 8 µg/mL	> 8 µg/mL	> 8 µg/mL	AE-1^c						
COc1ccccc1NC(=O)c1ccc(NC(=O)[C@H](Cc2c[nH]nn2)NC(=O)c2ccc(NC(=O)c3ccc(C#N)cc3)cc2)cn1 [AE-2]	> 8 µg/mL	> 8 µg/mL	> 8 µg/mL	>8.0 >8.0 µg ml^−1	> 8 µg/mL	> 8 µg/mL	>8.0 >8.0 µg ml^−1	> 8 µg/mL	> 8 µg/mL	> 8 µg/mL	AE-2^c						
COc1ccccc1NC(=O)c1ccc(NC(=O)[C@H](Cc2c[nH]nn2)NC(=O)c2ccc(NC(=O)/C(C)=C/c3ccc(O)cc3)cc2)cn1 [AE-3]	> 8 µg/mL	> 8 µg/mL	> 8 µg/mL	>8.0 >8.0 µg ml^−1	> 8 µg/mL	> 8 µg/mL	>8.0 >8.0 µg ml^−1	> 8 µg/mL	> 8 µg/mL	> 8 µg/mL	AE-3^c						
CC(C)Oc1ccccc1NC(=O)c1ccc(NC(=O)[C@H](Cc2c[nH]nn2)NC(=O)c2ccc(NC(=O)c3ccc(C#N)cc3)cn2)cn1 [AE-4]	> 8 µg/mL	> 8 µg/mL	> 8 µg/mL	>8.0 >8.0 µg ml^−1	> 8 µg/mL	> 8 µg/mL	>8.0 >8.0 µg ml^−1	> 8 µg/mL	> 8 µg/mL	> 8 µg/mL	AE-4^c						
COc1c(NC(=O)c2ccc(NC(=O)[C@H](Cc3c[nH]nn3)NC(=O)c3ccc(NC(=O)c4ccc(C#N)cc4)cc3)cn2)ccc(F)c1F [AE-5]	> 8 µg/mL	> 8 µg/mL	> 8 µg/mL	>8.0 >8.0 µg ml^−1	> 8 µg/mL	> 8 µg/mL	>8.0 >8.0 µg ml^−1	> 8 µg/mL	> 8 µg/mL	> 8 µg/mL	AE-5^c						
COc1c(NC(=O)c2ccc(NC(=O)c3ccc(NC(=O)[C@H](Cc4c[nH]nn4)NC(=O)c4ccc(C#Cc5ccc(C#N)cc5)cc4)cn3)c(OC)c2O)ccc(C(=O)O)c1O [Alkyne–Albi]	0.063 µg/mL (≈ 0.0754 µM)	0.125 µg/mL (≈ 0.15 µM)	< 0.016 µg/mL	<0.016 <0.016 µg ml^−1	< 0.016 µg/mL	< 0.016 µg/mL	<0.016 <0.016 µg ml^−1	0.25 µg/mL (≈ 0.299 µM)	0.5 µg/mL (≈ 0.598 µM)	< 0.016 µg/mL	Alkyne–Albi^a	as active as albicidin					
COc1c(NC(=O)c2ccc(NC(=O)c3ccc(NC(=O)[C@H](Cc4c[nH]nn4)NC(=O)c4ccc(NC(=O)/C(C)=C/c5ccc(O)cc5)cc4)cn3)c(OC)c2O)ccc(C(=O)O)c1O [Azahis–Albi]	0.031 µg/mL (≈ 0.035 µM)	0.063 µg/mL (≈ 0.0711 µM)	< 0.016 µg/mL			0.031 µg/mL (≈ 0.035 µM)		0.125 µg/mL (≈ 0.141 µM)	0.5 µg/mL (≈ 0.564 µM)	< 0.016 µg/mL			<0.016 <0.016 µg ml^−1	< 0.016 µg/mL	< 0.016 µg/mL	<0.016 <0.016 µg ml^−1	
C#CC[C@H](NC(=O)c1ccc(NC(=O)c2ccc(C3(C(F)(F)F)N=N3)cc2)cc1)C(=O)Nc1ccc(C(=O)Nc2ccc(C(=O)Nc3ccc(C(=O)O)c(O)c3OC)c(O)c2OC)nc1 [photo-Albi]																	active against gyrase
